Source: patent publication US20060135415A1, “Immunomodulation and effect on cell processes relating to serotonin family receptors and the blood-brain barrier” (priority 2002, published 2006)

Assays:
[1] = test system: murine lymphocytes (BALB/c responders, C57/B6 stimulators); assay: Murine mixed lymphocyte reaction (BALB/c vs. C57BL6); assay type: cell-based, mouse; conditions: FIG. 10
Protocol: MLRs were performed essentially as described in Current Protocols in Immunology (1999, Section 3.12.6-3.12.7). That is, the primary spleen cells obtained from C57/B6J mice were used as stimulators. They were purified as described in Current Protocols in Immunology (1999, Section 3.1.5), and were irradiated (35 Gy) at the Hahnemann Hospital (Philadelphia, Pa.) blood bank facility. Primary spleen cells obtained from BALB/c/BYJ were depleted from the adherent cells using a nylon wool column, and were used as responders.
The various inhibitors were pre-plated onto 96 well, U-bottom plates and all experimental conditions were assayed at least in triplicate. 100,000 C57/B6 cells in RPMI medium, supplemented with 10% FBS, were plated into each well. 200,000 of BALB/c/BYJ cells were plated over the stimulator cells, to a final volume of 200 μl/well. Background controls received either no BALB/c cells, or no C57/B6 cells. One micro Ci of tritiated thymidine was added to each well after 4 days, and the plates were harvested 12 hours later.

[2] = test system: ConA stimulated human lymphocytes; assay: Viable cell counts (trypan blue) during ConA stimulation; assay type: cell-based; conditions: 10 μg/ml ConA, manual counts over time (FIG. 11)
Protocol: FIG. 11 is a diagram depicting the effect of a 5HT type 1 receptor antagonist and a 5HT type 2 receptor antagonist on the cell numbers occurring during the mitogenic stimulation of human lymphocyte activation. The cells were stimulated with 10 μg/ml ConA. The cells were repurified on a Ficoll gradient prior to addition of the inhibitor. Trypan blue exclusion was used to count the viable cells.
To further assess the effects of propanolol (a general 5-HTR 1 antagonist) and risperidone (a general 5-HTR 2 antagonist) on the mitogenically stimulated lymphocyte culture, the number of viable cells were manually counted as the assay progressed. If the cells were not stimulated, there was no detectable change in the number of viable cells. When the cells were stimulated with ConA, a small lag period was observed and the beginning of the growth phase compared to the stimulation response curve observed in the absence of the inhibitor. […] Apparently, there is no decrease or increase compared with the starting cell numbers. It is unclear whether or not this is due too anergy, an inability to initiate the activation pathway, or both. […] Thus, based on the data presented here, the classes of antagonists that inhibit the type 2 serotonin receptors appear to be rate limiting for the lymphocyte activation processes.

[3] = test system: allogeneic CTL response against P815 cells; assay: Murine allograft model, CTL killing of P815 target cells by splenocytes; assay type: in vivo, C57BL/6J mice; conditions: 5HT antagonists 200 μg/injection tail vein days 6 and 8; Cyclosporin A 100 μg ip daily from day −2; sacrifice day 14 (FIGS. 13, 14)
Protocol: The in vivo validation screen used was an art-recognized murine allogeneic rejection model as described in Zhan et al., 2000. For this assay, a complete MHC miss-match system was employed wherein 5×10^6 P815 cells ([H-2^d] DBA/2 mastocytoma) were injected into the peritoneal cavity of C57BL/6J (H-2^b) mice on day 0 of the experiment. These mice typically generate a strong cytotoxic T lymphocyte (CTL) reaction in response to P815 cells. Following the initial P815 cell inoculation, the mice were allowed to develop a CTL response (this usually takes about 10-14 days). […] Mice were then sacrificed on day 14 of the experiment as indicated in the figures; and the allogeneic CTL response was assayed as described previously (Tretiakova et al., 2000, Nature Biotechnology 18:984-988). The primary spleen cells from the treated and untreated animals were used in the direct CTL readout. Freshly obtained primary spleen cells were incubated with the [^3H] labeled target cells (P815 cells) at 100:1, 50:1, 25:1, and 12.5:1 ratios for 3.5 hours at 37° C. and harvested using a PHD harvester. The percentage of specific killing was determined using the formula % kill=(S−E)/S, where S is the amount of the DNA retained by the target cells in the absence of the effector cells and E is the amount of retained DNA in the presence of the effector cells (expressed in counts per minute; cpm).
This is an art-recognized model of allograft […] rejection based on that described by […]. (2000). In this model, there is a complete MHC mismatch between the P815 cells (H-2^d) and the C57BL6 mouse (H-2^b), thus ensuring an aggressive immune response. The data disclosed in FIG. 13, depicts results of experiments that included 6 treatment groups, each group consisting of three mice. Each mouse received 5×10^6 P815 cells injected into the peritoneal cavity on day 0 of the study. The first group was an untreated control group, which was used to establish the baseline response of the mice against the allogeneic stimulus. These mice, without any further treatments, were sacrificed, as were the other treatment groups, on day 14 of the study and their splenocytes assayed for target-specific killing of the P815 cells.
The average kill observed for the untreated group was about 45% at an effector to target ratio of 100:1. The second group was treated with risperidone, a 5HT-2 antagonist, administered via a tail vein bolus injection (200 μg/injection) on days 6 and 8 of the study. The timing of the drug administration was selected to ensure that the T cells were fully activated prior to the drug treatment. The third group was treated with propanolol, a 5HT-1 antagonist. All of the 5HT receptor antagonist-treated groups were treated as described for the risperidone-treated group. The fourth group was treated chronically with CyclosporinA. The Cyclosporin A was administered ip at a dosage of 100 μg/injection starting two days prior to the onset of the study, i.e., at day −2, and the injections were continued on a daily basis for the duration of the study.
Finally, studies conducted in vivo using the CD8-dependent allograft rejection model, in which P815 cells (a rapidly growing cell line taken from a mastocytoma in a DBA mouse), were expanded and used to create a robust rejection response in a C57BL6 mouse. In this study the mice received 5×10^6 P815 cells injected into their peritoneal cavity on day 0 of the study. The first group was an untreated control group (naïve animals), used to acquire the baseline response of the mice against the allogeneic stimulus. The positive controls were treated with the allogeneic cells without any further treatments. These animals were used to assess the induced allogeneic response against the P815 cells. […]

[4] = test system: ConA stimulated human lymphocytes; assay: Human mitogenic (ConA) stimulation, 3H-thymidine incorporation; assay type: cell-based; conditions: for relief of phenelzine-induced inhibition / proliferative response, reagent added alone: 1 μg/ml ConA; for relief of phenelzine-induced inhibition: phenelzine-inhibited cells, reagents 100 μM (FIG. 6); for proliferative response, reagent added alone: reagent 100 μM (FIG. 6); for stimulation of ConA-activated human PBLs: reagents at 400 μM, time course (FIG. 4)
Protocol: Blood from healthy volunteers was drawn using venipuncture, using Vacutainer collection sets and heparinized collection vials. The blood was diluted 1:1 using HBSS to a total volume of 30 ml in 50 ml conical tubes (Fisher Scientific, Co., Pittsburgh, Pa.). […] Cells from the buffy coats were collected and the residual Histopaque was washed away using repeated centrifugations in HBSS. After washes, cells were resuspended at 5 million cells per ml in RPMI, supplemented with 2% FBS. To remove adherent cells, the suspension was plated onto a 6 well flat-bottom plate (Corning Costar), 3 ml/well, and incubated for 2 hours at 37° C., 5% CO2. Non-adherent cells were harvested after this incubation, were counted and resuspended in RPMI supplemented with 10% human serum (Sigma).
All drugs were pre-plated before the cell suspension was added onto each well of a 96-well round-bottom plate. All experimental conditions were assayed in at least triplicate. Cells suspended in RPMI supplemented with 10% human serum were plated at 100,000 cells per well to a final volume of 200 μl. […] Control samples received no ConA stimulation. The plates were incubated at 37° C. and 5% CO2.

[5] = test system: T cells in macrophage-conditioned media; assay: Macrophage media-conditioning study, T cell proliferation in conditioned media; assay type: cell-based, mouse; conditions: assay shown in FIG. 1

Row | Compound | outcome of murine MLR [1] | number of viable cells [2] | allograft (CTL) response [3] | relief of phenelzine-induced inhibition [4] | proliferative response, reagent added alone [4] | stimulation of ConA-activated human PBLs [4] | restoration of T cell proliferation in conditioned media [5] | other results
1 | 5-methyl hydroxytryptamine | slight enhancement |  |  |  |  |  |  | 
2 | CC(C)NC[C@H](O)COc1cccc2ccccc12 (racemic) [propanolol] |  | prevents the cell from growing | did not protect the mice from the allograft rejection response |  |  |  |  | 
3 | CNc1cc(NS(=O)(=O)c2ccc(N)cc2)nc(NC)n1 [Ro 04-679] | had no effects on the outcome of the assay |  |  |  |  |  |  | 
4 | Cc1nc2n(c(=O)c1CCN1CCC(c3noc4cc(F)ccc34)CC1)CCCC2 [risperidone] |  | caused a brief cell increase, followed by the elimination of the cells in culture | inhibited the allograft response to varying degrees |  |  |  |  | 
5 | NCCc1c[nH]c2ccc(O)cc12 [serotonin, 5-hydroxytryptamine] |  |  |  | caused the assay to rebound to baseline levels | did not | enhanced the maximal stimulation of the cells | only marginally restored the assay | proliferative response ([4]; differing ConA concentrations 0.1-10 μg/ml, harvest 72 hours (FIG. 5)): has no effect on the assay until the highest dose of ConA
6 | N[C@@H](Cc1c[nH]c2ccccc12)C(=O)O [tryptophan] |  |  |  | had very little effect | enhanced the proliferative response | enhanced the maximal stimulation of the cells | had no effect | proliferative response ([4]; 0.1 μg/ml ConA, harvest 72 hours (FIG. 5A)): augments the proliferative response; proliferative response ([4]; highest ConA dose 10 μg/ml, harvest 72 hours (FIG. 5C)): no enhancement at the highest level
